US20260083725A1, “SIGMARI LIGAND FOR THE TREATMENT OF PANCREATIC CANCER” (INSTITUT NATIONAL DE LA SANTÉ ET DE LA RECHERCHE MÉDICALE, priority 2022, published 2026)

Columns and labels:
[1] = system: SK2 channel; assay: Whole cell patch clamp recording of SK2 current in pancreatic cancer cells; format: cell-based, human; details: for CAF-CM-induced SK2 current: PANC-1 cells incubated with CAF-CM plus inhibitor or antibody
Description: Electrophysiological recordings in HEK293-T, PANC-1 and MiaPaCa-2 cells were performed in the whole cell configuration of the patch clamp technique at room temperature. Cells were bathed in a solution containing: 5 mM KCl, 145 mM NaCl, 1 mM MgCl2, 2 mM CaCl2, and 10 mM Hepes (pH adjusted to 7.4 with HCl, 300 mosm/L). Soft glass patch electrodes (Brand, Wertheim, Germany) were made on a horizontal pipette puller (P-97, Sutter Instrument Co., Novato, CA) to achieve a final resistance ranging from 3 to 5 MΩ. The internal solution was: 145 mM KCl, 1 mM MgCl2, 0.87 mM CaCl2, 1 mM EGTA, 10 mM Hepes, 1 mM ATP (pH adjusted to 7.2 with KOH, 308 mosm/L, pCa 6). Recordings were performed at room temperature in the voltage clamp mode using an PC-controlled EPC 9 patch-clamp amplifier (HEKA, Lambrecht/Pfalz, Germany). Currents were acquired and analyzed with Pulse and Pulsefit software (HEKA). Signal were filtered at 10 kHz and digitalized at 20 kHz. Currents were elicited by voltage ramps protocols (from −120 to +60 mV). Current density was measured at 0 mV. For the electrophysiological study of the SK2 mutations, HEK293-T were transfected with the different constructions and the HA-myr-AKT using calcium phosphate and recorded 24 h after transfection.

[2] = system: SK2/AKT interaction; assay: In situ proximity ligation assay of SK2/AKT interaction in PANC-1 cells; format: cell-based, human; details: PANC-1 Sh RD cells, overnight CAF-CM + 1(S) ligand 1 μM; FIG. 1B
Description: The DuoLink in situ Proximity Ligation Assay (PLA) (Olink Bioscience, Uppsala, Sweden) was used to detect the interaction between SK2 and different candidates' partner (C-myc Sig-1R, EGFR, AKT, β1 integrin). PANC-1 cells expressing a stable Sh R D, Sh Sig-1R, or Sh SK2 were seeded on poly-Lysine (40 μg/mL) coated microscope slides. Cells were fixed with PFA 4% and permeabilized with triton X100 (0.05%). Cells were immunolabeled with primary antibodies: anti SK2 (1:100) and anti C-myc, (1:100) or anti EGFR (1:100), or anti AKT (1:100), or anti β1 integrin (1:100) for 1 h at 37° C. The secondary antibodies with attached PLA probes were supplied in the Duolink kit. Cellular PLA images were captured using an inverted Zeiss Axio Observer Z1 microscope (Zeiss, Jena, Germany). 6 to 10 fields have been imaged and quantified per conditions.

[3] = system: Panc-1 cells; assay: Proliferation and viability assays on Panc-1 cells; format: cell-based; details: control Panc-1 cells or cells silenced for Sig1R or SK2
[4] = system: KICpdx1 mice; assay: Endogenous PDAC mice model (KICpdx1 mice) treated with 1(S) ligand; format: in vivo, mouse; details: for median survival: once a week, non-treated 67 days
Description: Pdx1-Cre, Ink4afl/fl LSL-KrasG12D (KICpdx1) mice were obtained by crossing of the following strains: Pdx1-Cre, Ink4afl/fl, and LSL-KrasG12D mice provided by D. Melton (Harvard Stem Cell Institute, Cambridge, Massachusetts, USA), R. Depinho (Dana-Farber Cancer Institute, Boston, Massachusetts, USA), and T. Jacks (David H. Koch Institute for Integrative Cancer Research, Cambridge, Massachusetts, USA), respectively. PDAC-bearing 5- and 8-week-old mice were treated once a week with vehicle or 1(S) ligand (0.1 mg/injection/mouse) until experimental endpoint mice reaching sacrificing time or mice reaching physiological endpoints (cachexia criteria, limited movement, drinking or feeding of the mice). No exclusion has to be reported in all experiments as no mice reached a criteria of exclusion such as a fight-related wound or the development of ear inflammation.. To study final tumor volume, mice were euthanized at 9 weeks and tumors were weighted and fixed in 4% (wt/vol) formaldehyde for immunochemistry. For survival analyses, mice were euthanized when they developed ethical clinical end points defined by our institutional guidelines and European animal protection law. For all experiments, sample size was predicted following a Mann-Whitney statistical approach involving power calculation of 0.8 with a FDR of 0.05. A minimum number of 7 mice per group was predicted as able to reach significance. Bonferroni post-hoc test was used for multiples test comparison (two variance with time and/or treatment). Experimental technicians were proceeding with injections while personnel related to mice follow-up worked in a blinded approach. All animal care and experimental procedures were performed in agreement with the Animal Ethics Committee of Marseille then the French ministry of research and innovation under the reference Apafis#16998-2018100814458519.

[5] = KICpdx1 mice treated from 5 weeks, end-point at 9 weeks, versus untreated

Compound | CAF-CM-induced SK2 current [1] | CAF-CM mediated activation of SK2 (ISK2 current) ([1]; PANC-1 cells exposed overnight to CAF-CM + 1(S) ligand 1 μM, patch-clamp, FIG. 1A) | association of SK2 and AKT (PLA, interactions per cell) [2] | effect on proliferation and viability [3] | tumor progression ([4]; KICpdx1 mice treated from 5 weeks old, before the onset of PDAC) | median survival ([4]; KICpdx1 mice treated from 5 weeks old, 0.1 mg/injection/mouse, FIG. 1D) [days] | histological examination of pancreas ([4]; KICpdx1 mice treated from 5 weeks, end-point at 9 weeks) | ECM density (trichrome labelling, desmoplasia) [4, 5] | number of EMT-reprogramming epithelial cells (Pan-CK/αSMA co-staining) [4, 5] | reduction of pancreas weight compared to non-treated ([4]; KICpdx1 mice treated from 5 weeks, end-point at 9 weeks, FIG. 1F) [%] | pancreas weight ([4]; KICpdx1 mice treated from 5 weeks, end-point at 9 weeks, non-treated 1.44 g (±0.42), FIG. 1F) [g] | median survival ([4]; KICpdx1 mice treated from 8 weeks of age (PDAC already developed), FIG. 1H) [days] | metastasis onset ([4]; mouse models of PDAC treated with 1(S))
C#Cc1cccc(Nc2ncnc3cc(OCCOC)c(OCCOC)cc23)c1 [Erlotinib, reference compound] | suppressed | – | – | – | – | – | – | – | – | – | – | – | –
CCN(CC)CCCCN1c2ccccc2Oc2ccc(Cl)cc21 [DEBC, reference compound] | suppressed | – | – | – | – | – | – | – | – | – | – | – | –
CN(CCCN1C(=O)[C@@H]2Cc3ccccc3CN2C1=O)Cc1ccccc1 [Compound 1(S)] | – | abolished | prevented | does not exhibit any effect | significantly delayed | 84 | almost lack of malignant lesions | lower | lower | 69 | 0.45 | 77 | reduced
